According to PubChem BioAssay (NCI):
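Tested at 5 concentrations; 48 h exposure; 96-well plates; endpoints linearly interpolated, else capped at highest concentration. TGI: total growth inhibition.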

Columns and labels:
Assay in all cases: growth of human tumour cells (NCI), 48 h
[1] = test system: A549 NSCLC
[2] = test system: CCRF-CEM leukemia
[3] = test system: 786-0 renal
[4] = test system: NCI-H522 lung
[5] = test system: KM12 colon
[6] = test system: MDA-MB-231 breast
[7] = test system: NCI-H23 lung
[8] = test system: HOP-92 NSCLC
[9] = test system: RXF 393 renal
[10] = test system: U251 CNS
[11] = test system: IGROV1 ovarian
[12] = test system: A498 renal
[13] = test system: UACC-257 melanoma
[14] = test system: SNB-19 CNS
[15] = test system: SK-MEL-28 melanoma
[16] = test system: SW-620 colon
[17] = test system: ACHN renal
[18] = test system: SR leukemia
[19] = test system: OVCAR-4 ovarian
[20] = test system: M14 melanoma
[21] = test system: COLO 205 colon
[22] = test system: SF-539 CNS
[23] = test system: OVCAR-8 ovarian
[24] = test system: RPMI-8226 leukemia
[25] = test system: NCI-H460 lung
[26] = test system: HCT-15 colon
[27] = test system: PC-3 prostate
[28] = test system: HT29 colon
[29] = test system: NCI/ADR-RES ovarian
[30] = test system: HCT-116 colon
[31] = test system: DU-145 prostate
[32] = test system: MDA-MB-435
[33] = test system: MOLT-4 leukemia
[34] = test system: MALME-3M melanoma

Work on CN(CCNCc1cn(C)c2c1ccc1ccccc12)CCNCc1cn(C)c2c1ccc1ccccc12 yielded a TGI [1] of 2310 nM, a TGI [2] of 2210 nM and a TGI [3] of 1830 nM. The TGI [4] was 2860 nM, the TGI [5] was 2320 nM and the TGI [6] was 2990 nM. The TGI [7] was 2670 nM, the TGI [8] was 3380 nM and the TGI [9] was 1710 nM. The TGI [10] was 2110 nM, the TGI [11] was 3240 nM and the TGI [12] was 13900 nM. It also gave a TGI [13] of 3030 nM, a TGI [14] of 2300 nM and a TGI [15] of 2840 nM. For the same molecule, the TGI [16] was 2570 nM, the TGI [17] was 2970 nM and the TGI [18] was 2880 nM. It also gave a TGI [19] of 2640 nM, a TGI [20] of 904 nM and a TGI [21] of 2330 nM. It also gave a TGI [22] of 3160 nM, a TGI [23] of 3340 nM and a TGI [24] greater than 100000 nM. It also gave a TGI [25] greater than 100000 nM, a TGI [26] of 2500 nM and a TGI [27] of 2570 nM. For the same molecule, the TGI [28] was 2770 nM, the TGI [29] was 2540 nM and the TGI [30] was 2330 nM. It also gave a TGI [31] of 2760 nM, a TGI [32] of 2860 nM and a TGI [33] of 2810 nM. It also gave a TGI [34] of 3610 nM.
